What was measured:
Assay type in all cases: cell-based
IL-6 = IL-6 secretion from purified human monocytes; parameters: key: NE: No effect; INHIB: Inhibition; STIM: Stimulation; IC40: 40% Inhibitory Concentration; EC50: 50% Effective Concentration; TC: Tolerated Concentration; IA: Interferes with Assay
Method: (§1) This assay determines the effect of test compounds on the secretion of IL-6 from purified human monocytes. Compounds are tested for their ability to downregulate the production of IL-6 in activated monocytes, or upregulate secretion of IL-6 in unstimulated monocytes. Test compounds are incubated for sixteen hours with purified human monocytes at four dilutions over a range of three log10 concentrations. Where appropriate, lipopolysaccharide (LPS) is used to stimulate the monocytes.
(§2) The level of IL-6 in the resultant supernatants is quantitated in a solid phase Enzyme-linked Immunoassay (EIA) performed in a 96 well format. IL-6 present in the samples is captured by a specific monoclonal antibody immobilized on the well, and probed with an anti-IL-6 polyclonal antibody conjugated to horseradish peroxidase, followed by an appropriate substrate. The levels of IL-6 are determined by interpolation of the resultant color change in the substrate from a standard curve. All supernatants are tested in duplicate with controls and standards.

IL-8 = IL-8 secretion from purified human monocytes; parameters: key: NE: No effect; INHIB: Inhibition; STIM: Stimulation; IC40: 40% Inhibitory Concentration; EC50: 50% Effective Concentration; TC: Tolerated Concentration; IA: Interferes with Assay
Method: as §1, with “IL-8” for “IL-6”
as §2, with “IL-8” for “IL-6”, “anti-IL-8” for “anti-IL-6”

superoxide anion = experiment: Superoxide anion release from purified human monocytes; parameters: key: NE: No effect; INHIB: Inhibition; STIM: Stimulation; IC40: 40% Inhibitory Concentration; EC50: 50% Effective Concentration; TC: Tolerated Concentration; IA: Interferes with Assay; conditions: zymosan
Method: (§3) This assay measures the ability of the test compound to modulate the ability of purified human monocytes to release superoxide anions in response to a zymosan. Compounds are tested at four dilutions over a range of three log10 concentrations. Monocyte-compound cultures are treated with zymosan to stimulate anion production. The amount of superoxide anion produced is determined by the culture's ability to reduce cytochrome C, as measured colorimetrically. The assay is carried out in a 96-well format in triplicate and results are expressed in relation to baseline unstimulated and maximum controls. Appropriate reference controls are run with each assay.
as §3, with “minimum” for “maximum”

phospholipase A2 = experiment: Cellular phospholipase A2 activity in human monocytes; parameters: key: NE: No effect; INHIB: Inhibition; STIM: Stimulation; IC40: 40% Inhibitory Concentration; EC50: 50% Effective Concentration; TC: Tolerated Concentration; IA: Interferes with Assay
Method: This assay measures the ability of test compounds to modulate the activity of the cellular phospholipase A2 in human monocytes. Compounds are tested for their ability to inhibit stimulate phospholipase A2 activity or activate basal activity in unstimulated monocytes. Test compounds are incubated for ninety minutes with purified human monocytes at four dilutions over a range of three log10 concentrations. Where appropriate, zymosan is used to stimulate the monocytes.
Monocytes with the arachidonyl moiety of phospholipids radiolabelled are utilized in a 96 well format. Percent release of radiolabelled fatty acid into the extracellular medium is quantified by liquid scintillation counting. All compounds are tested in duplicate with controls and standards.

[1] = tested on: normal human mononuclear cells; experiment: PHA mitogen-stimulated cell proliferation; parameters: key: NE: No effect; INHIB: Inhibition; STIM: Stimulation; IC40: 40% Inhibitory Concentration; EC50: 50% Effective Concentration; TC: Tolerated Concentration; IA: Interferes with Assay
Method: The purpose of this procedure is to determine the effect of test compounds on Mixed Lymphocyte Reaction and Mitogen-Induced Proliferation of normal human mononuclear cells.
(§4) Procedure for Cell Proliferation: Peripheral blood mononuclear cells (PBMNC) are added to a 96-well cell culture plate. Compounds are tested at four dilutions, in quadruplicates, over a range of three log10 concentrations along with negative an inhibitory controls. The test compounds are incubated with the cells for one hour, phytohemagglutinin (PHA) is then added to all reactive test wells and the cultures are incubated for three days. The cultures are then pulsed with ^3 H incorporation is then determined with a Wallac Betaplate counter.
as §4, with “incubated with,” for “incubated with”, “for thee” for “for three”

MTS = conditions: human, monocytes; read-out: TC (Tolerated Concentration), MTS

CCCCCCCCCCCCCC/C=C\CC[C@@H]1OC(=O)C(O)=C1O [(S)-3,4-Dihydroxy-5-[(Z)-3-octadecenyl]-2(5H)-furanone]
EFFECT on IL6 (IL-6; STIMULATED): NE
EFFECT on IL6 (IL-6; UNSTIMULATED): NE
EFFECT on IL8 (IL-8; STIMULATED): NE
EFFECT on IL8 (IL-8; UNSTIMULATED): NE
EFFECT on SUPEROXIDE (superoxide anion): IA
EFFECT on PLA2 (phospholipase A2; STIMULATED): NE
EFFECT on PLA2 (phospholipase A2; UNSTIMULATED): NE
EFFECT on PHA [1]: NE
MNTC (MTS): 50 µM
